PMC5400251, “Effect of quinoline based 1,2,3-triazole and its structural analogues on growth and virulence attributes of Candida albicans” (PLoS ONE, 2017)
≈ marks a conversion by molar mass, not a printed value. Like-named read-outs stand apart in the source and are kept apart here.

Experiments:
[1] = molecular target: T1, plasma membrane H+ ATPase (Candida albicans, UniProt P28877); experiment: Measurement of intracellular pH (pHi); type: cell-based, C. albicans D27 (FLC-susceptible); details: 100 μg/mL; untreated 6.6
T1 construct: endogenous in cells; host or cells: C. albicans ATCC 90028; clinical isolates C. albicans D27 (FLC-susceptible) and D15.9 (FLC-resistant); mid-log phase whole cells
Experimental: (§1) In yeast cells, plasma membrane H^+-ATPase helps to maintain internal pH between 6.0 and 7.5. Intracellular pH (pHi) was measured as reported earlier by Manzoor et al.. Mid-log phase cells were harvested from SD medium and washed thrice with PBS. Subsequently, cells (0.1 g) were suspended in 5 mL solution of 0.1 M KCl, and 0.1 mM CaCl2 in distilled water. Compounds 3a and 3b were added to the suspension at a desired concentration of 100 μg/mL. […] Initial pH of the suspension was adjusted to 7.0 in each case and incubated for 30 min at 37°C with constant stirring. After incubation, the pH of suspension was again adjusted to 7.0 followed by the addition of nystatin (20 μM) and incubation at 37°C for 1 h. The change in pH of the suspension was monitored on a pH meter with constant stirring. The value of external pH at which nystatin permeabilization induced no further shift was taken as an estimate of pHi.

[2] = molecular target: T1, plasma membrane H+ ATPase; experiment: Proton extrusion measurement (H+ efflux); type: cell-based, C. albicans ATCC 90028
Experimental: The proton pumping activity of C. albicans was determined by monitoring acidification of external medium by measuring pH as describe earlier. In brief, the mid-log phase cells were harvested from SD medium by centrifugation at 3000 rpm for 15 min which is followed by three washings with phosphate buffer saline (PBS). A solution containing 0.1 M KCl and 0.1 mM CaCl2 in distilled water was prepared. Compounds 3a and 3b at the concentrations of 50 and 100 μg/mL were separately added in this solution. […] Initial pH was adjusted to 7.0 using 0.01 M HCl/NaOH. Approximately 0.2 g of cells were suspended in each set of solution. Suspension was kept in a double-jacketed glass container with constant stirring. Again, the pH of suspension was maintained as 7.0 for 1 min by using 0.01 N NaOH. The rate of H^+ extrusion was then monitored and calculated from the volume of 0.01 N NaOH consumed per min per mg weight of cells. Glucose has been reported as the stimulator of proton extrusion pump. Therefore above experiment was also repeated in the presence of 5 mM of glucose.

[3] = tested on: C. albicans D15.9 (FLC-resistant clinical isolate); experiment: Broth dilution IC50 / MIC determination; type: cell-based; details: Candida albicans; for IC50: 24 h, read-out: Anti-Candida Activity (IC50± S.D.) C. albicans D15.9
Experimental: Broth dilution technique was employed to determine the IC50 values of all the synthesized 1,2,3 triazole derivatives (3a-c) against C. albicans ATCC 90028, C. glabrata ATCC 90030, C. tropicalis ATCC 750 and four clinical isolates of C. albicans namely D27, D31, D39 (FLC-sensitive) and D15.9 (FLC-resistant). The strains were maintained on yeast extract:peptone:dextrose ([…]) nutrient agar (2.5%) slants at 4°C. The test compounds were dissolved in DMSO with less than 4% concentration of it in the final test volume. Different concentrations (1000… 7.8 μg/mL) of test compounds in Sabouraud dextrose (SD) broth medium were dispensed into the wells, then inoculated with the test organism with approx. 2.5 × 10^3 cells/mL and incubated at 37°C for 24 h. After incubation period, the optical density was measured at 600 nm by using Thermo Scientific Multiskan Go plate reader. […] All the experiments were done in triplicate at separate times.

C. albicans = experiment: Disk diffusion assay, appearance of zones (strains not distinguished); type: cell-based
Experimental: (§2) Disk diffusion assay was performed using C. albicans ATCC 90028 (standard), the two clinical isolates, C. albicans D27 (FLC-susceptible), and C. albicans D15.9 (FLC-resistant) for the lead inhibitors 3a and 3b. The C. albicans cells were inoculated into liquid SD medium and grown over night at 37°C. The cells were then centrifuged at 3000 rpm for 5 min, washed three times with PBS and then suspended in PBS again. Approximately, 10^5 cells/mL were inoculated into molten SD agar medium at 42°C and poured into 100-mm-diameter petriplates. Sterilized 4 mm disks of Whatman paper were placed on solid agar and 1, 2, and 4 μL of 3a and 2, 4, and 8 μL of 3b from the stock solution of 10 mg/mL were spotted on the disk. […] The diameter of zone of inhibition (ZOI) was recorded in millimetres after 48 h and was compared with that of control. This experiment was repeated thrice and values were shown in terms of mean ±standard error of mean.

phospholipase secretion = experiment: Phospholipase assay (egg yolk agar, Pz value); type: cell-based, C. albicans D27 (FLC-susceptible)
Experimental: Phospholipase activity was performed using the method of Price et al. (1982) with minor modifications. The cells were incubated at 37°C for 18 h and then centrifuged at 3000 rpm for 5 min. The pellet obtained was washed with PBS twice to remove the residual culture medium. […] Volumes of 1 μL were placed at equidistant points on phospholipase agar media plates (1% peptone; 3% glucose; 5.73% NaCl; 0.055% CaCl2 with 10% (v/v) egg yolk emulsion) and incubated at 37°C for 4 days. The secretion of phospholipases was determined by the formation of opaque zones due to precipitation around the yeast colonies. The assay was conducted in duplicate. Pz values were calculated as follows: Pzvalue=diameterofcolony/diameterofcolony+diameterofzoneofprecipitaion

[4] = tested on: C. albicans D15.9 (FLC-resistant); experiment: Disk diffusion assay; type: cell-based; details: 48 h
Experimental: as §2

[5] = tested on: C. albicans D27 (FLC-susceptible); experiment: Disk diffusion assay; type: cell-based; details: 48 h
Experimental: as §2

[6] = tested on: C. albicans ATCC 90028 (Standard); experiment: Disk diffusion assay; type: cell-based; details: 48 h
Experimental: as §2

[7] = molecular target: T1, plasma membrane H+ ATPase; experiment: Measurement of intracellular pH (pHi); type: cell-based, C. albicans ATCC 90028; details: 100 μg/mL; untreated 6.3
Experimental: as §1

[8] = 50 μg/mL in presence of glucose (5 mM)
[9] = 100 μg/mL in presence of glucose (5 mM)
[10] = 100 μg/mL, no glucose, read-out: Inhibition of H+ extrusion
[11] = in the presence of glucose (5 mM), 100 μg/mL, read-out: Inhibition of H+ extrusion rate
[12] = Candida albicans, 40 μg per disk
[13] = Candida albicans, ATCC90028, 20 μg per disk
[14] = Candida albicans, ATCC90028, 40 μg per disk

T1 sequence (P28877 whole entry): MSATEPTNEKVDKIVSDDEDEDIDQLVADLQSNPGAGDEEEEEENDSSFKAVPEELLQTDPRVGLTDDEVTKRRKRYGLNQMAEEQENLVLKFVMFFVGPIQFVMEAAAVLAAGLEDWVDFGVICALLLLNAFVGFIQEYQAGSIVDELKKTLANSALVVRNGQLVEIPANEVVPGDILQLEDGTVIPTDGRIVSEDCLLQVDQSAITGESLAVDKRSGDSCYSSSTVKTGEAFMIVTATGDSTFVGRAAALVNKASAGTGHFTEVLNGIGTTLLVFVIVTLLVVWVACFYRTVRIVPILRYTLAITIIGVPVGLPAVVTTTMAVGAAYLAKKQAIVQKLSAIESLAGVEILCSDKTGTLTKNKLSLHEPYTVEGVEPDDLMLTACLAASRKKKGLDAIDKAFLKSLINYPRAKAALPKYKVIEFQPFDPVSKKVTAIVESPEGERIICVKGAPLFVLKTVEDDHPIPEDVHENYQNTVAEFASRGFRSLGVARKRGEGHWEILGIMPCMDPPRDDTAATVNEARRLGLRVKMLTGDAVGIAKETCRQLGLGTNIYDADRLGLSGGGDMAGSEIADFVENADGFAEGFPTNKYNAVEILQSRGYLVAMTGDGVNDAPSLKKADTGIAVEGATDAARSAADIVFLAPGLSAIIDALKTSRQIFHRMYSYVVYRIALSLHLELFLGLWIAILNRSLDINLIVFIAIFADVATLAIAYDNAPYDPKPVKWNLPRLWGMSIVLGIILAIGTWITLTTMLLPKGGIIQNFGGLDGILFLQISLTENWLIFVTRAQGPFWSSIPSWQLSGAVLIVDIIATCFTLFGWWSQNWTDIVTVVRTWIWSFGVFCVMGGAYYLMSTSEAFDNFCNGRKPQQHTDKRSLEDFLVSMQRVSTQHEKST

SMILES | Intracellular pH (pHi) [1] | Range of relative H+ efflux rate [2, 8] | Range of relative H+ efflux rate ([2]; 50 μg/mL, no glucose) | Range of relative H+ efflux rate [2, 9] | Range of relative H+ efflux rate ([2]; 100 μg/mL, no glucose) | inhibition at 100 µg/mL [2, 10] | inhibition at 100 µg/mL [2, 11] | MIC [3] | IC50 [3] | Appearance of zone around disks (clear = fungicidal nature, turbid = fungistatic nature) (C. albicans) | Decrease of phospholipase secretion (phospholipase secretion; at MIC, 1 h exposure) | Decrease of phospholipase secretion (phospholipase secretion; at MIC/4, 1 h exposure) | zone of inhibition at 20 µg/disc ([4]; Candida albicans) | zone of inhibition at 40 µg/disc ([4]; Candida albicans) | zone of inhibition at 40 µg/disc [5, 12] | zone of inhibition at 20 µg/disc [6, 13] | zone of inhibition at 40 µg/disc [6, 14] | Intracellular pH (pHi) [7] | also measured
Clc1ccc(OCc2cn(Cc3ccccc3)nn2)c2ncccc12 [Compound 3b, 8-((1-Benzyl-1H-1,2,3-triazol-4-yl)methoxy)-5-chloroquinoline] | 5.1 | 23.30 ± 1.1 ×10^−6 mol min^−1 mg cells^−1 | 23.40 ± 1.1 ×10^−6 mol min^−1 mg cells^−1 | 20.00 ± 1.0 ×10^−6 mol min^−1 mg cells^−1 | 19.30 ± 0.9 ×10^−6 mol min^−1 mg cells^−1 | 47% | 64% | 250 µg/mL (≈ 713 µM) | 32.8 ± 1.25 µg/mL (≈ 93.5 µM) | turbid | 46% | 34% | 15 ± 0.21 mm | 18 ± 0.09 mm | 18 ± 0.87 mm | 18 ± 0.72 mm | 25 ± 0.9 mm | 4.7 | Zone of Inhibition ([4]; 80 μg per disk): 22± 0.79 mm; zone of inhibition at 80 µg/disc ([4]; Candida albicans): 22 mm; Zone of Inhibition ([5]; 80 μg per disk): 26± 1.17 mm; zone of inhibition at 20 µg/disc ([5]; Candida albicans, 20 μg per disk, read-out: Zone of Inhibition): 16 ± 0.54 mm; zone of inhibition at 80 µg/disc ([5]; Candida albicans, 80 μg per disk): 26 mm; Zone of Inhibition ([6]; 80 μg per disk): 29± 0.93 mm; zone of inhibition at 80 µg/disc ([6]; Candida albicans, ATCC90028, 80 μg per disk): 29 mm
c1ccc(Cn2cc(COc3cccc4cccnc34)nn2)cc1 [Compound 3a] | 5.2 | 33.40 ± 1.6 ×10^−6 mol min^−1 mg cells^−1 | 19.60 ± 0.9 ×10^−6 mol min^−1 mg cells^−1 | 26.60 ± 1.3 ×10^−6 mol min^−1 mg cells^−1 | 11.00 ± 0.5 ×10^−6 mol min^−1 mg cells^−1 | 70% | 52% | 25 µg/mL (≈ 79 µM) | 2.3 ± 0.05 µg/mL (≈ 7.27 µM) | clear | 42% | 25% | 26 mm | 32 mm | 26 mm | 35 mm | 39 mm | 5.2 | Zone of Inhibition ([4]; 20 μg per disk): 26± 073 mm; Zone of Inhibition ([4]; 40 μg per disk): 32± 1.28 mm; zone of inhibition at 10 µg/disc ([4]; Candida albicans): 20 ± 0.21 mm; Zone of Inhibition ([5]; 40 μg per disk): 26± 0.92 mm; zone of inhibition at 20 µg/disc ([5]; Candida albicans): 19 ± 0.95 mm; zone of inhibition at 10 µg/disc ([5]; Candida albicans, 10 μg per disk): 14 ± 0.7 mm; Zone of Inhibition ([6]; 20 μg per disk): 35± 0.97 mm; Zone of Inhibition ([6]; 40 μg per disk): 39± 1.12 mm; zone of inhibition at 10 µg/disc ([6]; Candida albicans, ATCC90028, 10 μg per disk): 28 ± 0.72 mm
